According to ChEMBL document CHEMBL3714751, “Diaminopyrimidines as P2X3 and P2X2/3 modulators” (2009):
Calls of active or inactive are those of the source. No cut-off for these calls is given here.

Key:
[1] = target: T1, P2X purinoceptor 3 (Rattus norvegicus) (UniProt P49654); assay: Antagonist activity against rat P2X3 receptor expressed in CHOK1 cells assessed as inhibition of alpha,beta-meATP-induced calcium response incubated for 20 mins by Fluo-3AM dye based FLIPR assay; type: functional, cell-based; details: CHO-K1
T1 sequence (whole entry): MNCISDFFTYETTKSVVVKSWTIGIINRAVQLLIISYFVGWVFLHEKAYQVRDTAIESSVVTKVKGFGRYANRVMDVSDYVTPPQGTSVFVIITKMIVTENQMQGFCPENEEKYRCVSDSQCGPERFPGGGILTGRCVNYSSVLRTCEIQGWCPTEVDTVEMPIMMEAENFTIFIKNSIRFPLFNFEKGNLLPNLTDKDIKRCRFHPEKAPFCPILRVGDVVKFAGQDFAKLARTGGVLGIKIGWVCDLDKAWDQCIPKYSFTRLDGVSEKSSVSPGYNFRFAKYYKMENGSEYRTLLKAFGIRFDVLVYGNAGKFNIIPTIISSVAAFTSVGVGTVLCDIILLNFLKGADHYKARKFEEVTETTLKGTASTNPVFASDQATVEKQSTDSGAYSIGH

[2] = system: Canis familiaris; assay: AUC in dog assessed as 5-(5-Iodo-2-iso-propyl-4-methoxy-phenoxy)-pyrimidine-2,4-diamine level at 0.127 mmol administered orally by gavage after 24 hrs by HPLC method; type: ADME, organism-based, Canis lupus familiaris; design: dose 0.127 mmol, time < 24 hr, route oral; details: in vivo, po
[3] = system: Canis familiaris; assay: Cmax in dog assessed as 5-(5-Iodo-2-iso-propyl-4-methoxy-phenoxy)-pyrimidine-2,4-diamine level at 0.127 mmol administered orally by gavage after 24 hrs by HPLC method; type: ADME, organism-based, Canis lupus familiaris; design: dose 0.127 mmol, route oral; details: in vivo, po

Structure (SMILES)	inhibition [1]	AUC [2]	Cmax [3]
COc1cc(C(C)C)c(Oc2cnc(NC(=O)CNC3CCN(C)CC3)nc2N)cc1I	Active		
COc1cc(C(C)C)c(Oc2cnc(NC(=O)CN3CCN(CCCO)CC3)nc2N)cc1I	Active		
COc1cc(C(C)C)c(Oc2cnc(NC(=O)CNC(C)(C)C)nc2N)cc1I	Active		
COc1cc(C(C)C)c(Oc2cnc(NC(=O)CN3CCC(C(C)=O)CC3)nc2N)cc1I	Active		
COc1cc(C(C)C)c(Oc2cnc(NC(=O)CNC3CCC3)nc2N)cc1I	Active		
COc1cc(C(C)C)c(Oc2cnc(NC(=O)CNC3CCCCC3)nc2N)cc1I	Active		
COc1cc(C(C)C)c(Oc2cnc(NC(=O)CN3CCOCC3)nc2N)cc1I	Active		
COc1cc(C(C)C)c(Oc2cnc(NC(=O)CN3CCCC3)nc2N)cc1I	Active		
COc1cc(C(C)C)c(Oc2cnc(NC(=O)CN3CCN(C)CC3)nc2N)cc1I	Active		
COc1cc(C(C)C)c(Oc2cnc(NC(=O)CN3CCNCC3)nc2N)cc1I	Active		
COCCNCC(=O)Nc1ncc(Oc2cc(I)c(OC)cc2C(C)C)c(N)n1	Active		
COc1cc(C(C)C)c(Oc2cnc(NC(=O)CN3CC(C)OC(C)C3)nc2N)cc1I (stereo not drawn)	Active		
COc1cc(C(C)C)c(Oc2cnc(NC(=O)CNCC(C)C)nc2N)cc1I	Active		

Continued, values first:

inhibition [1]	AUC [2]	Cmax [3]	Structure (SMILES)
Active			COc1cc(C(C)C)c(Oc2cnc(NC(=O)CN(C)C3CCCCC3)nc2N)cc1I
Active			COc1cc(C(C)C)c(Oc2cnc(NC(=O)CNC3CCCC3)nc2N)cc1I
Active			COc1cc(C(C)C)c(Oc2cnc(NC(=O)CNC3CCC(C)CC3)nc2N)cc1I (stereo not drawn)
Active			CCCNCC(=O)Nc1ncc(Oc2cc(I)c(OC)cc2C(C)C)c(N)n1
Active			COc1cc(C(C)C)c(Oc2cnc(NC(=O)CN3CCCCC3)nc2N)cc1I
Active			CCC(CC)NCC(=O)Nc1ncc(Oc2cc(I)c(OC)cc2C(C)C)c(N)n1
Active			C#Cc1cc(Oc2cnc(NC(=O)CN3CCN(C)CC3)nc2N)c(C(C)C)cc1OC
Active	372 ng·h/mL	120 ng/mL	CCCN(CCC)CC(=O)Nc1ncc(Oc2cc(I)c(OC)cc2C(C)C)c(N)n1
Active			COc1cc(C(C)C)c(Oc2cnc(NC(=O)CN3CCN(CCO)CC3)nc2N)cc1I
Active			COc1cc(C(C)C)c(Oc2cnc(NC(=O)CNCC3CC3)nc2N)cc1I
Active			COc1cc(C(C)C)c(Oc2cnc(NC(=O)CN(C)C)nc2N)cc1I
Active			COc1cc(C(C)C)c(Oc2cnc(NC(=O)CN3CCC(N)CC3)nc2N)cc1I
Active			CCN(CCCCO)CC(=O)Nc1ncc(Oc2cc(I)c(OC)cc2C(C)C)c(N)n1
